Assay results: paper PMC10580965 (Microbiology Spectrum, 2023)
Values after ≈ are worked out from the molar mass of the structure shown. Where two headings read alike, the source gives them in different places. Bridge positions count the residues as written; N and C are the ends. Square brackets hold non-standard residues; d marks the D form. Peptide text beside a SMILES is read from it. * marks the point of attachment. Ileψ(thiazoline)Cys = CC[C@H](C)[C@H](N)C1=N[C@H](C(=O)*)CS1; dOrn = NCCC[C@@H](N)C(=O)O; X1 = CC[C@H](C)CCCCC(=O)*; Dab = NCC[C@H](N)C(=O)O

How the values were obtained:
[1] = pH 7; cited from earlier work
[2] = system: C. pseudotuberculosis wild-type
[3] = system: C. pseudotuberculosis ΔlysX complement
Corynebacterium spp. = details: cited from earlier work

Molecule | Charge [1] | MIC wt [2] | MIC ΔlysX complement [3] | MIC wt ([2]; 24 h) | MIC ΔlysX complement ([3]; 24 h) | susceptibility breakpoint (Corynebacterium spp.)
CC1(C)S[C@@H]2[C@H](NC(=O)[C@H](N)c3ccccc3)C(=O)N2[C@H]1C(=O)O [Ampicillin] | 0 |  |  |  |  | 
[H]/N=C(/N)N[C@H]1[C@H](O)[C@@H](O)[C@H](O[C@@H]2O[C@@H](C)[C@](O)(C=O)[C@H]2O[C@@H]2O[C@@H](CO)[C@H](O)[C@@H](O)[C@@H]2NC)[C@@H](N/C(N)=N\[H])[C@@H]1O [Streptomycin] | +3 | 20 µg/mL (≈ 34.4 µM) | 20 µg/mL (≈ 34.4 µM) |  |  | 
CC[C@H](C)CCCCC(=O)N[C@@H](CCN)C(=O)N[C@H](C(=O)N[C@@H](CCN)C(=O)N[C@H]1CCNC(=O)[C@H]([C@@H](C)O)NC(=O)[C@H](CCN)NC(=O)[C@H](CCN)NC(=O)[C@H](CC(C)C)NC(=O)[C@@H](Cc2ccccc2)NC(=O)[C@H](CCN)NC1=O)[C@@H](C)O [Polymyxin B] (X1-[Dab]T[Dab][Dab][Dab][dF]L[Dab][Dab]T; lactam 4-C (inferred); N-terminus assumed) | +5 |  |  | 640 µg/mL (≈ 532 µM) | 640 µg/mL (≈ 532 µM) | 
Cc1onc(-c2ccccc2)c1C(=O)N[C@@H]1C(=O)N2[C@@H]1SC(C)(C)[C@@H]2C(=O)O [Oxacillin] | −1 | 2.5 µg/mL (≈ 6.23 µM) |  |  |  | 
CC[C@H](C)[C@H](N)C1=N[C@H](C(=O)N[C@@H](CC(C)C)C(=O)N[C@H](CCC(=O)O)C(=O)N[C@H](C(=O)N[C@H]2CCCCNC(=O)[C@H](CC(N)=O)NC(=O)[C@@H](CC(=O)O)NC(=O)[C@H](Cc3cnc[nH]3)NC(=O)[C@@H](Cc3ccccc3)NC(=O)[C@H]([C@@H](C)CC)NC(=O)[C@@H](CCCN)NC2=O)[C@@H](C)CC)CS1 [Bacitracin] ({Ileψ(thiazoline)Cys}-L[dE]IK[dOrn]I[dF]H[dD]N; lactam 4-C (inferred); N-terminus assumed) | 0 |  |  | 6.4 µg/mL (≈ 4.5 µM) |  | 
CN(C)[C@@H]1C(O)=C(C(N)=O)C(=O)[C@@]2(O)C(O)=C3C(=O)c4c(O)cccc4[C@@](C)(O)[C@H]3C[C@@H]12 [Tetracycline] | −1 | 0.312 µg/mL (≈ 0.702 µM) |  |  |  | 
CO/N=C(\C(=O)N[C@@H]1C(=O)N2C(C(=O)O)=C(CSc3nc(=O)c(=O)[nH]n3C)CS[C@H]12)c1csc(N)n1 [Ceftriaxone] | −2 | 0.625 µg/mL (≈ 1.13 µM) |  |  |  | 
CC[C@H]1OC(=O)[C@H](C)[C@@H](O[C@H]2C[C@@](C)(OC)[C@@H](O)[C@H](C)O2)[C@H](C)[C@@H](O[C@@H]2O[C@H](C)C[C@H](N(C)C)[C@H]2O)[C@](C)(O)C[C@@H](C)C(=O)[C@H](C)[C@@H](O)[C@]1(C)O [Erythromycin] | +1 | 0.156 µg/mL (≈ 0.213 µM) |  |  |  | 
CN(C)[C@@H]1C(O)=C(C(N)=O)C(=O)[C@@]2(O)C(O)=C3C(=O)c4c(O)cccc4[C@@](C)(O)[C@H]3[C@H](O)[C@@H]12 [Oxytetracycline] | 0 | 0.625 µg/mL (≈ 1.36 µM) |  |  |  | 
CC[C@H](C)[C@H](NC(=O)CN)C(=O)NCC(=O)N[C@@H](C)C(=O)N[C@H](C(=O)N[C@@H](CC(C)C)C(=O)N[C@@H](CCCCN)C(=O)N[C@H](C(=O)N[C@@H](CC(C)C)C(=O)N[C@H](C(=O)N[C@H](C(=O)NCC(=O)N[C@@H](CC(C)C)C(=O)N1CCC[C@H]1C(=O)N[C@@H](C)C(=O)N[C@@H](CC(C)C)C(=O)N[C@H](C(=O)N[C@@H](CO)C(=O)N[C@@H](Cc1c[nH]c2ccccc12)C(=O)N[C@H](C(=O)N[C@@H](CCCCN)C(=O)N[C@@H](CCCNC(=N)N)C(=O)N[C@@H](CCCCN)C(=O)N[C@@H](CCCNC(=N)N)C(=O)N[C@@H](CCC(N)=O)C(=O)N[C@@H](CCC(N)=O)C(N)=O)[C@@H](C)CC)[C@@H](C)CC)[C@@H](C)O)[C@@H](C)O)C(C)C)C(C)C [Melittin] | +5 |  |  | >40 µg/mL | >40 µg/mL | 
CNC(C)C1CCC(N)C(OC2C(N)CC(N)C(OC3OCC(C)(O)C(NC)C3O)C2O)O1 (centres unmarked) [Gentamicin] | +5 | 5 µg/mL (≈ 10.5 µM) | 5 µg/mL (≈ 10.5 µM) |  |  | 4 µg/mL
NC[C@H]1O[C@H](O[C@H]2[C@H](O)[C@@H](O[C@H]3O[C@H](CO)[C@@H](O)[C@H](N)[C@H]3O)[C@H](N)C[C@@H]2N)[C@H](O)[C@@H](O)[C@@H]1O [Kanamycin] | +4 | 10 µg/mL (≈ 20.6 µM) | 10 µg/mL (≈ 20.6 µM) |  |  | 
CN[C@@H]1[C@H](O)[C@H](NC)[C@H]2O[C@@]3(O)C(=O)C[C@@H](C)O[C@H]3O[C@@H]2[C@H]1O [Spectinomycin] | +1 | 2.5 µg/mL (≈ 7.52 µM) | 2.5 µg/mL (≈ 7.52 µM) |  |  | 
Nisin | +4 | 80 µg/mL | 80 µg/mL |  |  | 
O=C(N[C@H](CO)[C@H](O)c1ccc([N+](=O)[O-])cc1)C(Cl)Cl [Chloramphenicol] | 0 | 10 µg/mL (≈ 30.9 µM) |  |  |  | 
CCCNC[C@]1(O)[C@H](C)O[C@@H](O[C@H]2[C@H](C)[C@@H](O[C@@H]3O[C@H](C)C[C@H](N(C)C)[C@H]3O)[C@](C)(O)C[C@@H](C)CN[C@H](C)[C@@H](O)[C@](C)(O)[C@@H](CC)OC(=O)[C@@H]2C)C[C@@]1(C)OC [Tulathromycin] | +3 | 2.5 µg/mL (≈ 3.1 µM) | 2.5 µg/mL (≈ 3.1 µM) |  |  | 
CN[C@H](CC(C)C)C(=O)N[C@H]1C(=O)N[C@@H](CC(N)=O)C(=O)N[C@H]2C(=O)N[C@H]3C(=O)N[C@H](C(=O)N[C@H](C(=O)O)c4cc(O)cc(O)c4-c4cc3ccc4O)[C@H](O)c3ccc(c(Cl)c3)Oc3cc2cc(c3O[C@@H]2O[C@H](CO)[C@@H](O)[C@H](O)[C@H]2O[C@H]2C[C@](C)(N)[C@H](O)[C@H](C)O2)Oc2ccc(cc2Cl)[C@H]1O [Vancomycin] | +1 |  |  | 0.75 µg/mL (≈ 0.518 µM) |  | 
CN[C@@H]1[C@@H](O[C@H]2O[C@H](CO)[C@@H](N)[C@H](O)[C@H]2O)OC2C[C@@H](N)[C@@H](O[C@H]3[C@H](O)[C@@H](O)[C@H](N)C[C@@H]3N)OC2[C@@H]1O (some centres unmarked) [Apramycin] | +5 | 20 µg/mL (≈ 37.1 µM) | 20 µg/mL (≈ 37.1 µM) |  |  | 
CC1(C)S[C@@H]2[C@H](NC(=O)[C@H](NC(=O)N3CCNC3=O)c3ccccc3)C(=O)N2[C@H]1C(=O)O [Azlocillin] | −1 | 0.156 µg/mL (≈ 0.338 µM) |  |  |  | 
